According to PMC11868579 (Nature Communications, 2024):

Assays:
eIF4E = biological target: T1, eIF4E (Homo sapiens, UniProt P06730); assay: CETSA in intact H1299 cells; type: cell-based; details: 6 hrs; for eIF4E stabilisation, eIF4E normalised to vinculin relative to average control (plotted on graph), Average: H1299, 57 °C, control = 1.000
T1 construct: endogenous in cells; host or cells: H1299
Protocol: Cells (1.5 × 10^6 cells) were plated into 75 cm^2 flasks and allowed to attached overnight. After treatment with compound 4 or 5 for 6 h, they were harvested by trypsinisation and washed x2 in ice cold PBS. Cells were resuspended in 1 ml of cold PBS supplemented with protease and phosphatase inhibitors (Fisher Scientific, cat#1861281). Resuspended cells were divided into 100 μl aliquots and centrifuged at 300 x g for 3 min at 4 °C. Following centrifugation, 75μl of supernatant was removed and cells resuspended in the remaining volume. Cell suspensions were heated at 40.9, 43.7, 48.1, 52.9, 57.6, 62.4, 67.2, 71.9, 76.3 and 79.1 °C for 3 mins followed by cooling at 20 °C for 3 min[25]. Suspensions were freeze-thawed twice using liquid nitrogen. Soluble fractions were separated from cell debris by centrifuging at 20,000 x g for 30 min at 4 °C. Samples were then analysed by Western Blot.

SW620 cells = assay: CellTiter-Blue cell viability, SW620; type: cell-based, human; details: SW620, 4 days
Protocol: Cell viability was measured by CellTiter-Blue® Cell Viability Assay. Cells were seeded in 96 well plates (Corning, cat#353072) and left overnight. Compounds were added at a range of concentrations and plates incubated at 37 °C for 96 hr. Cell titre blue reagent (Promega, Hampshire, UK, cat# G8081) was added (5 μl/well) and incubated for a further 2 h at 37 °C. Fluorescence (579Ex/584Em) was measured using a PHERAstar plate reader.
Supplementary Fig. 10 Determination of the effects of compound 4 on protein synthesis and viability. a HEK293 cells were transfected with protein synthesis reporter expressing bicistonic mRNA with a cap-dependent luciferase reporter and a cap-independent luciferase driven by a viral IRES. Cells were treated with 1 or 10 µM with compound 4 for 24 hr. Luminescence was measured using the Dual-glo luciferase assay (mean ± SEM from 3 biological replicates). b SW620 cells were transfected with a c-Myc-regulated firefly luciferase expression reporter or a constitutive CMV promoter-regulated renilla luciferase reporter. Cells were treated for 24 hr with 1 or 10 µM compound 4 or the […] kinase inhibitor AZD8055 as positive control (mean ± SEM from 3 biological replicates). […]
vs 1 µM AZD8055). c Cell viability measured by cell titre blue assay was performed in SW620 cells treated with compound 4 for 4 days (mean ± SEM from 3 biological replicates). […]

[1] = Human microsomal clearance assay; type: in vitro ADME
[2] = type: physicochemical
Excerpt: Chrom kinetic Plasma Caco-2 microsomal
Cmpd Chemical MW LogD solubility protein permeability intrinsic
# Structure (Da) (pH binding (Papp x10-6 clearance […]
Supplementary notes Table Physicochemical and in vitro pharmacokinetic properties of compound 4.
Experimental procedures for the measurement of ChromLogD, aqueous solubility, plasma protein binding, Caco2 permeability and microsomal […]
Determination of Chromatographic LogD (ChromLogD7.4)
Chromatographic hydrophobicity index (CHI) values were measured using reversed phase HPLC column (PolymerX RP-1, Phenomenex, UK) with a fast acetonitrile gradient at starting mobile phase of pH = 7.4. CHI values are derived directly from the gradient retention times by using a calibration line obtained for standard compounds.
The CHI value approximates to the volume % organic concentration when the compound elutes. CHI is linearly transformed into ChromLogD7.4 by least-square fitting of experimental CHI values to calculated C logP values for over 20,000 research compounds using the following formula: ChromLogD7.4 = 0.0857CHI-2.001.
(1 picture or pasted object on this page, not shown here)

[3] = Suppl Fig. 10c, concentration response of Compound 4 (test not named); details: 3 experiments
parent H1299 cells = assay: MCL1 and growth in parental H1299 cells; type: cell-based, human
Protocol: Real time monitoring of cell growth was performed with the IncuCyte ZOOM live cell imaging system (Essen BioSciences, USA). Cells were seeded in 96 well plates (Corning, cat#353072) and treated on the next day. The resulting phase-contrast images were analysed using IncuCyte ZOOM 2018A software and results were expressed as percentage confluency of cells.
After seeding overnight in 6 well plates (Corning, cat#353046), cells were treated with compounds for the indicated times and concentration, harvested and the cell pellet lysed on ice in cell lysis buffer (Cell Signaling, cat#9803), supplemented with 1x Halt^TM protease inhibitor cocktail (Fisher Scientific, cat#78429) and cOmplete^TM protease inhibitor cocktail (Sigma-Aldrich, cat#11836153001) for 1 hr. Protein was quantified using BCA protein kit (Fisher Scientific, cat#23225). Western blot was performed using NuPAGE^TM 4–12% Bis-Tris gels (Fisher Scientific, cat#NP0336BOX) and transferred using the Invitrogen iBLOT^TM gel transfer device system (Fisher Scientific, Cat#IB21001). […] All primary antibodies were diluted (1:1000) in 5% BSA (Sigma-Aldrich, cat#A7906) in 1x TBS and 0.1% Tween 20 (Sigma-Aldrich, cat#P1379), except for vinculin (1:2000) that was diluted in casein blocker (Sigma-Aldrich, cat#1610782). […] Quantitative densitometry analysis of protein bands was performed using Image J v1.53 software.

T1 sequence (P06730 whole entry): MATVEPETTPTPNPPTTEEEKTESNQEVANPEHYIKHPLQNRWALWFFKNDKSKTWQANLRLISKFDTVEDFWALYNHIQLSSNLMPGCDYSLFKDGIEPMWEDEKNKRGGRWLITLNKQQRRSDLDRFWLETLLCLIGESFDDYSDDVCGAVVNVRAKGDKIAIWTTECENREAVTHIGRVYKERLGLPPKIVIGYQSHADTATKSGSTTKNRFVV

| Structure (SMILES) | eIF4E stabilisation, eIF4E normalised to vinculin relative to average control (plotted on graph), Average (eIF4E; 0.5 μM) | eIF4E stabilisation, eIF4E normalised to vinculin relative to average control (plotted on graph), Average (eIF4E; 1 μM) | eIF4E stabilisation, eIF4E normalised to vinculin relative to average control (plotted on graph), Average (eIF4E; 5 μM) | eIF4E stabilisation, eIF4E normalised to vinculin relative to average control (plotted on graph), Average (eIF4E; 10 μM) | protection of eIF4E from thermal denaturation (eIF4E; H1299 cells, 50 µM) | EC50 (eIF4E; read-out: EC50, thermal protection of eIF4E (target engagement), intact H1299 cells, 57.6 °C) | antiproliferative activity (SW620 cells) | Human microsomal intrinsic clearance ([1]; 1 µM, 0.25 mg/mL microsomes) | clearance in human liver microsomes ([1]; human) | Chrom LogD (pH 7.5) [2] | Suppl Fig. 10c signal, Average ([3]; Conc 0.0398 uM) | Suppl Fig. 10c signal, Average ([3]; Conc 0.0794 uM) | Suppl Fig. 10c signal, Average ([3]; Conc 0.1585 uM) | Suppl Fig. 10c signal, Average ([3]; Conc 0.3126 uM) | Suppl Fig. 10c signal, Average ([3]; Conc 0.6252 uM) | Suppl Fig. 10c signal, Average ([3]; Conc 1.0000 uM) | Suppl Fig. 10c signal, Average ([3]; Conc 1.9999 uM) | Suppl Fig. 10c signal, Average ([3]; Conc 3.9994 uM) | Suppl Fig. 10c signal, Average ([3]; Conc 10.0000 uM) | effect on MCL1 or proliferation in parent cells (parent H1299 cells) |
| --- | --- | --- | --- | --- | --- | --- | --- | --- | --- | --- | --- | --- | --- | --- | --- | --- | --- | --- | --- | --- |
| CC[C@H](O[C@H](C)CO)c1ccc(-c2ccccc2F)cc1NCCO [Compound 4] | 1.140 | 1.298 | 1.771 | 2.067 | protected eIF4E from thermal denaturation | 2 µM | lacked on-target antiproliferative activity | 210 µL/min/mg protein | moderate clearance | 4.6 | 107.08 | 87.69 | 100.85 | 97.88 | 95.93 | 93.39 | 114.58 | 94.77 | 126.74 | – |
| CC[C@H](C(=O)N1CCCC[C@H]1C(=O)O[C@H](CCc1ccc(OC)c(OC)c1)c1ccccc1OCC(=O)NCCCCCCC(=O)N[C@H](C(=O)N1C[C@H](O)C[C@H]1C(=O)N[C@@H](C)c1ccc(-c2scnc2C)cc1)C(C)(C)C)c1cc(OC)c(OC)c(OC)c1 [dTAG^V-1] | – | – | – | – | – | – | – | – | – | – | – | – | – | – | – | – | – | – | – | no effect on MCL1 or proliferation |
